Experimental data taken from patent US6294568A, “5-arylpyrrole derivatives” (priority 1997, dated 2001).

Tests used:
CaCo-2 cells = experiment: Apoptosis Induction Test in CaCo-2 Cells; format: cell-based; conditions: 24 hours, propidium iodide staining, fluorescence microscope
Method: CaCo-2 cells were adjusted in 10% FBS/DMEM/NEAA to 1.0×10^5 cells/ml concentration and then pipetted into a 6 well plate in an amount of 3 ml/well. The cells were cultured under the conditions of at 37° C. in 5% CO2 atmosphere for 24 hours to allow the cell adhesion. Only the medium solution (0.1% ethanol) was exchanged in the control group, and the compound of the invention (Preparation Example 1) group was transferred to culture mediums containing the compound adjusted to each of the specified concentrations, then the cells were cultured under the condition of at 37° C. in 5% CO2 atmosphere for 24 hours. Then the culture medium and the adhesive cells separated of the adhesion by trypsin were collected and centrifuged at 1000 rpm for 5 minutes to remove the supernatant. The cells were washed with PBS(-) and then 20 μl of 90% ethanol/0.5% triton×100/10mM EDTA/10mM Tris-HCl (pH7.4) and 5 μl of propidium iodide (1 μg/ml) were added thereto to stain the nucleuses. A drop of the stained cell solution was placed on a preparation glass to be examined by a fluorescence microscope at B range.

Acute Toxicity Test = format: in vivo, SD rats
Method: SD rats (3 rats per group) fasted overnight was employed in the present test. The title compound (Preparation Example 1) suspended in 1% methyl cellulose was administered to the rats. The test was conducted on the dosages of […]. […] It was indicted from the test result that the title compounds ensure the enhanced safety.

Human COX-2 = biological target: T1, Human COX-2 (Homo sapiens, UniProt P35354); experiment: Human COX-2 Inhibitory Activity Test (LPS-induced PGE2 in blood); format: cell-based
T1 construct: endogenous in cells; host or cells: heparinised whole blood of a healthy human donor pretreated with aspirin, stimulated with LPS (own knowledge: COX-2 is induced in monocytes)
T1 sequence (P35354 18-604): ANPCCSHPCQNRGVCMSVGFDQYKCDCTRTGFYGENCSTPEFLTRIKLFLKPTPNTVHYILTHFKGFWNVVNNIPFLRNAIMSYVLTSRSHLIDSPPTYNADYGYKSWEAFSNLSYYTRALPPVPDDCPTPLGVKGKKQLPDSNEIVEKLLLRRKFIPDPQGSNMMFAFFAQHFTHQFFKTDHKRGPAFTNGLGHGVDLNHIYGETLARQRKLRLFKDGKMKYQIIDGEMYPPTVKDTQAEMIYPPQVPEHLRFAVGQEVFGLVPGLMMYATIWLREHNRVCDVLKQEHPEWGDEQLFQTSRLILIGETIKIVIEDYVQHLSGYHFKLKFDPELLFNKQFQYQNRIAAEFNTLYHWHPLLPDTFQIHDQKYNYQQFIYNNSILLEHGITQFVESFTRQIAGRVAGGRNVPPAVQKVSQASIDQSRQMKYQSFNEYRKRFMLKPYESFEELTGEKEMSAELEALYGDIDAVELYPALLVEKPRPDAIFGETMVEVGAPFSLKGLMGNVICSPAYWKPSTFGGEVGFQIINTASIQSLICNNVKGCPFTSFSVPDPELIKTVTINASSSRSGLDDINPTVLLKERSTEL

Sarcoma 180 solid tumor = experiment: Antitumor Effect with respect to Sarcoma 180 Solid Tumor Mouse; format: in vivo, ICR mice; conditions: 10 mg/kg in abdominal cavity, 10 days; day 11
Method: The antitumor effect test was conducted according to the method of the U. S. National Cancer Institute (NCI) (Cancer Chemotherapy Reports part 3, Vol. 3, 1 (1978)). Cell suspension of Sarcoma 180 cells (mouse sarcoma virus) which was employed as the tumor cell strain for transplant was prepared by diluting the cells in the Hank's solution at 2×10^7 cells/ml concentration ([…]), and ICR mice (10 mice per group) aged 5 weeks were injected subcutaneously with 0.2 ml of the cell suspension at the region of the back. Setting the day of the tumor transplantation as day 0. the mice were administered in the abdominal cavity with the compounds of the invention (Preparation Examples 1 and 37), 5-fluorouracyl, and the solution as the control for 10 days consecutively from day 1. On day 11, the mice were sacrificed, and portions of the solid tumor were removed so that weights thereof were measured. The dosage of each of the test samples was 10 mg/kg.

Cc1cc(-c2ccc(F)cc2)c(-c2ccc(S(C)(=O)=O)cc2)[nH]1 [Preparation Example 1, 4-(4-fluorophenyl)-2-methyl-5-(4-methylsulfonylphenyl)-1H-pyrrole]
cell apoptosis (CaCo-2 cells): cell apoptosis caused by the compound of the invention was observed
death (Acute Toxicity Test; 500/kg, 1000/kg, 2000/kg, observed for a week): no death was noted in the test
general symptoms after administration (Acute Toxicity Test; rat, in vivo): an analgesic action was noted after the administration, and the rats recovered to the normal state in one hour
weight and general symptoms after one week (Acute Toxicity Test; rat, in vivo): the weight increased favorably and no abnormality was noted in the general symptoms
IC50 (Human COX-2; human blood, LPS, PGE2, IC50 from Hill Plot): 950 nM
COX-1/COX-2 (Human COX-2; ratio of IC50 COX-1 to COX-2): 683
Tumor Weight (Sarcoma 180 solid tumor): 0.726 g
